# Laboratory results as given in ChEMBL document CHEMBL3431459, “Roche carnitine palmitoyltransferase modulator screening data (supplementary data associated with the publication CHEMBL2216752)”.
# pIC50: −log10 of the molar value.
# Legend:
# [1] = target: T1, Carnitine O-palmitoyltransferase 1, liver isoform (Homo sapiens, UniProt P50416); experiment: (§1) SUPPLEMENTARY: Inhibition of Carnitine palmitoyltransferase 1, liver isoform
# T1 sequence (P50416 whole entry): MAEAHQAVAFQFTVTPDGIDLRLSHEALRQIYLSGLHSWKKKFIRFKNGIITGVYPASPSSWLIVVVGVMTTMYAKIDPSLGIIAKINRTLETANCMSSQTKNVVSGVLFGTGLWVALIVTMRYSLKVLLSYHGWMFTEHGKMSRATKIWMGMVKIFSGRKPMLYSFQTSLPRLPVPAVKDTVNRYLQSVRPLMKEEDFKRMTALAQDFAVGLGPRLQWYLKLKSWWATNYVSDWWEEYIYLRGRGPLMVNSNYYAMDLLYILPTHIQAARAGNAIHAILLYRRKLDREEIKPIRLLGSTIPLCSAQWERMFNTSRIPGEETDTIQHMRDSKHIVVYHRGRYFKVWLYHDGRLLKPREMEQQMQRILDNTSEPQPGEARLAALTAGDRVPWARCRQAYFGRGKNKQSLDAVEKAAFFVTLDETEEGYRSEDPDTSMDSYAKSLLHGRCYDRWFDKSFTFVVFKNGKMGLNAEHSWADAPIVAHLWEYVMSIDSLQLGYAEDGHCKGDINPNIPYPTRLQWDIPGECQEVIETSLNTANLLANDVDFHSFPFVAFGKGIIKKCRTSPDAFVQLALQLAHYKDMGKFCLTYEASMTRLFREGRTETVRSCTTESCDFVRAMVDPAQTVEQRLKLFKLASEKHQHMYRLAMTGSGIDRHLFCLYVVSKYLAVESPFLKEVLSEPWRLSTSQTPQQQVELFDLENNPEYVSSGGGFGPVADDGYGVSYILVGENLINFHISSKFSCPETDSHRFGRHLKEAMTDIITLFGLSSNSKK
# [2] = target: T2, Carnitine O-palmitoyltransferase 1, liver isoform (Rattus norvegicus, UniProt P32198); experiment: as §1
# T2 sequence (P32198 whole entry): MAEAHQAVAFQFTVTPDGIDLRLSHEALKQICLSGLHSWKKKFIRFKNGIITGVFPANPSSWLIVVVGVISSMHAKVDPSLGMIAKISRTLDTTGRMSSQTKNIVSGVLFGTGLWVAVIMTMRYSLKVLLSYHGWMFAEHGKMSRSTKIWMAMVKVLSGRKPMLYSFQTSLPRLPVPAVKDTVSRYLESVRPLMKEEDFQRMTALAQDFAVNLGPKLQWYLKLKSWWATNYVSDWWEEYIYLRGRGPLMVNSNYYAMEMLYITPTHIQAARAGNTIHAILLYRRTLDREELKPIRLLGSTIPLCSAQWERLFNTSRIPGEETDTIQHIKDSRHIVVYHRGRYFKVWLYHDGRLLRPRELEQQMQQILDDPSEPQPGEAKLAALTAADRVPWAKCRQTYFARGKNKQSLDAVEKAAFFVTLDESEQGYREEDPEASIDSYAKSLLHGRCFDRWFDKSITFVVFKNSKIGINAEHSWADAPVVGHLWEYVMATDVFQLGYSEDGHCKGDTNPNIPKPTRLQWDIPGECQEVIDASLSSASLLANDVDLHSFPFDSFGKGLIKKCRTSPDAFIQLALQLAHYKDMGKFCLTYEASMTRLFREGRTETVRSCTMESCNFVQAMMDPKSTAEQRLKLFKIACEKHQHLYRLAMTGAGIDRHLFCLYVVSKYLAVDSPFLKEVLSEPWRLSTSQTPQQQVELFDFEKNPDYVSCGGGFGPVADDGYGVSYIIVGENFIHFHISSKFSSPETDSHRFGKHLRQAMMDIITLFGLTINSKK
# [3] = target: T3, Carnitine O-palmitoyltransferase 2, mitochondrial (Homo sapiens, UniProt P23786); experiment: (§2) SUPPLEMENTARY: Inhibition of Carnitine palmitoyltransferase 2
# T3 sequence (P23786 whole entry): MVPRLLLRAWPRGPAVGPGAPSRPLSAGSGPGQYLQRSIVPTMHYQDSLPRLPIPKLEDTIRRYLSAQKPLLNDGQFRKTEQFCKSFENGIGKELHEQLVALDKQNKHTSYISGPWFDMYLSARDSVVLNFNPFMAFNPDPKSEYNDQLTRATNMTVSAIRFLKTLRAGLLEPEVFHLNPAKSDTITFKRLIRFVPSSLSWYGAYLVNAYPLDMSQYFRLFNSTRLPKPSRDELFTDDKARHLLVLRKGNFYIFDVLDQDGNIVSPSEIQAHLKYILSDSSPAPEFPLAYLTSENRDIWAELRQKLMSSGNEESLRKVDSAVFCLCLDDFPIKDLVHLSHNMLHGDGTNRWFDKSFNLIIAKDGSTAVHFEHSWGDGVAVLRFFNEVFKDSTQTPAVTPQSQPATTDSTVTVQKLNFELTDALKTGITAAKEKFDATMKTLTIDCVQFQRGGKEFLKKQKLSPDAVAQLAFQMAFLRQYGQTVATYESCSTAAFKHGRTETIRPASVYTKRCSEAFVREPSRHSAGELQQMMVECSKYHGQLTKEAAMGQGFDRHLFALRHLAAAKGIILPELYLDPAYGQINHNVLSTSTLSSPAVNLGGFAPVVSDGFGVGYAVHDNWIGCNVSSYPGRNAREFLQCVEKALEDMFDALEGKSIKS
# [4] = target: T4, Carnitine O-palmitoyltransferase 2, mitochondrial (Rattus norvegicus, UniProt P18886); experiment: as §2
# T4 sequence (P18886 whole entry): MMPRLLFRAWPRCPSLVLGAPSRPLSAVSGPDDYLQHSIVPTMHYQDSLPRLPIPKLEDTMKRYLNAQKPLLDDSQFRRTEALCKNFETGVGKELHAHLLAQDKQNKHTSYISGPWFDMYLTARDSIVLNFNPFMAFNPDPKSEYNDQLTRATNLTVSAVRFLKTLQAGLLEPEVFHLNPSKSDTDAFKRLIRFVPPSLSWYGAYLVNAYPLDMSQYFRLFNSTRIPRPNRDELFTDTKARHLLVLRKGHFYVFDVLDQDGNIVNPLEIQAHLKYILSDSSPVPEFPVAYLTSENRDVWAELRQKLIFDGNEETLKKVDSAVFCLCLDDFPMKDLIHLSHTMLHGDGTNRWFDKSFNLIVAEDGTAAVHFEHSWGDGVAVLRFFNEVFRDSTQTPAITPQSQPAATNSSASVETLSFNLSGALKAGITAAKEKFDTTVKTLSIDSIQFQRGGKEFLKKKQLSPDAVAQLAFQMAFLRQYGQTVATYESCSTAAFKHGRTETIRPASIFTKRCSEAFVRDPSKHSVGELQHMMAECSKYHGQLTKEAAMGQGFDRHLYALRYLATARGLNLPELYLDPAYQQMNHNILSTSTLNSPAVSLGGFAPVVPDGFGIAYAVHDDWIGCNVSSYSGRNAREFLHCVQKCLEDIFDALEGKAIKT
# [5] = target: T5, Carnitine O-palmitoyltransferase 1, muscle isoform (Homo sapiens, UniProt Q92523); experiment: SUPPLEMENTARY: Inhibition of Carnitine palmitoyltransferase 1, muscle isoform; set-up: species or system Muscle tissue
# T5 sequence (Q92523 whole entry): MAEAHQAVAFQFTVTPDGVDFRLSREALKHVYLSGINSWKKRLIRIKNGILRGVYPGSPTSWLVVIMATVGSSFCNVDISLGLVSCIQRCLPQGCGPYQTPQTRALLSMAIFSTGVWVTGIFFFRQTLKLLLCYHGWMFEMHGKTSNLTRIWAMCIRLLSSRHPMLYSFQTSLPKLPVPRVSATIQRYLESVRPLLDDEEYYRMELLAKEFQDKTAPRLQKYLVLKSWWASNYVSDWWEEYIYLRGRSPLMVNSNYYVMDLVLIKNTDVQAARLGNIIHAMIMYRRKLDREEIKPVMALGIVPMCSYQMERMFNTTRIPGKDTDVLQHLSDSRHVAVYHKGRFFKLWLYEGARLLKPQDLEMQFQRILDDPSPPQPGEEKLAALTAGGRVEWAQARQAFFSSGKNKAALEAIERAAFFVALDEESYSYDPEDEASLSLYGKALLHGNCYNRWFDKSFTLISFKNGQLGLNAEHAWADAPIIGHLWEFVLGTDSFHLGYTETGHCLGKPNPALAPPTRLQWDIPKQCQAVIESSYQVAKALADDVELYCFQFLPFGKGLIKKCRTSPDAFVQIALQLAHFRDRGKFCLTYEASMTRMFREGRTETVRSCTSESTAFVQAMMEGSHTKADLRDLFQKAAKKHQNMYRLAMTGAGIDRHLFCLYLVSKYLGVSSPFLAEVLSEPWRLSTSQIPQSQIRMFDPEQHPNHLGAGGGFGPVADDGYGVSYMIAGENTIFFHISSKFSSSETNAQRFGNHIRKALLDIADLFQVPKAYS
smiles,measurement,setting,value
COCCN(c1cc(C(=O)Nc2ccn(CC(=O)O)n2)cc2c1OCO2)S(=O)(=O)c1cc(Cl)ccc1OC,pIC50,[1],6.47
same,pIC50,[2],6.10
same,pIC50,[3],< 4.00
same,pIC50,[4],< 4.00
same,pIC50,[5],5.27
COc1ccc(Cl)cc1S(=O)(=O)N1CCCc2ccc(NC(=O)c3ccc(CC(=O)O)cc3)cc21,pIC50,[1],6.41
same,pIC50,[2],6.18
same,pIC50,[3],< 4.00
same,pIC50,[4],< 4.00
same,pIC50,[5],5.74
O=C(COc1ccccc1)OCc1cc(-c2nc([C@H]3CCCCN3C(=O)COc3ccccc3)cs2)ccn1,pIC50,[1],6.30
same,pIC50,[2],5.98
same,pIC50,[3],4.35
same,pIC50,[4],< 4.00
same,pIC50,[5],4.75
COC(=O)c1cccc(-c2nc([C@H]3CCCCN3C(=O)COc3ccccc3)sc2C)c1,pIC50,[1],6.52
same,pIC50,[2],6.20
same,pIC50,[3],4.22
same,pIC50,[4],< 4.00
same,pIC50,[5],< 4.00
O=C1CCC(=O)N1c1cc(F)cc(-c2noc([C@H]3CCCCN3C(=O)COc3ccccc3)n2)c1,pIC50,[1],7.12
same,pIC50,[2],6.41
same,pIC50,[3],4.79
same,pIC50,[4],< 4.00
same,pIC50,[5],< 4.00
O=C([C@H]1CCCCN1C(=O)COc1ccccc1)N1CCN(c2cc(Cl)cc(Cl)c2)CC1,pIC50,[1],6.70
same,pIC50,[2],6.41
same,pIC50,[3],5.50
same,pIC50,[4],6.02
same,pIC50,[5],< 4.00
O=C(COc1ccccc1)N1CCNCC1c1nc(-c2ccc(N3CCOCC3)cc2)no1 (stereo not given),pIC50,[1],7.05
same,pIC50,[2],6.31
same,pIC50,[3],< 4.00
same,pIC50,[4],< 4.00
same,pIC50,[5],< 4.00
COc1ccc(Cl)cc1S(=O)(=O)N1C[C@H](C(=O)O)Oc2ccc(C(=O)Nc3ccccc3)cc21,pIC50,[1],7.33
same,pIC50,[2],7.82
same,pIC50,[3],< 4.00
same,pIC50,[4],< 4.00
same,pIC50,[5],4.50
CS(=O)(=O)c1ccc(-n2nnc([C@H]3CCCCN3C(=O)COc3ccccc3)n2)cc1,pIC50,[1],6.91
same,pIC50,[2],6.22
same,pIC50,[3],4.76
same,pIC50,[4],< 4.00
same,pIC50,[5],< 4.00
COCCN(c1cc(C(=O)Nc2ncc(CC(=O)O)s2)cc2c1OCO2)S(=O)(=O)c1cc(Cl)ccc1OC,pIC50,[1],6.50
same,pIC50,[2],6.80
same,pIC50,[3],< 4.00
same,pIC50,[4],< 4.00
same,pIC50,[5],6.04
COc1ccc(Cl)cc1S(=O)(=O)N1CCSc2ccc(C(=O)Nc3ccc(C(=O)O)c(Cl)c3)cc21,pIC50,[1],7.06
same,pIC50,[2],6.91
same,pIC50,[3],5.36
same,pIC50,[4],4.98
same,pIC50,[5],5.82
COc1ccc(C)cc1S(=O)(=O)N1CCOc2ccc(C(=O)Nc3ccc(C(=O)O)c(F)c3)cc21,pIC50,[1],6.65
same,pIC50,[2],6.99
same,pIC50,[3],5.59
same,pIC50,[4],4.81
same,pIC50,[5],5.67
COc1ccc(-n2nnc([C@H]3CCCCN3C(=O)COc3ccccc3)n2)cc1,pIC50,[1],6.80
same,pIC50,[2],6.99
same,pIC50,[3],4.62
same,pIC50,[4],< 4.00
same,pIC50,[5],< 4.00
COc1ccc(Cl)cc1S(=O)(=O)N(c1cc(C(=O)Nc2nc(CC(=O)O)cs2)cc2c1OCO2)C(C)C,pIC50,[1],6.65
same,pIC50,[2],6.73
same,pIC50,[3],4.86
same,pIC50,[4],< 4.00
same,pIC50,[5],5.53
COc1ccc(Cl)cc1S(=O)(=O)N(c1cc(C(=O)Nc2ccc(CC(=O)O)cc2)cc2c1OCO2)C(C)C,pIC50,[1],6.05
same,pIC50,[2],5.96
same,pIC50,[3],4.28
same,pIC50,[4],< 4.00
same,pIC50,[5],6.22
COc1ccc(Cl)cc1S(=O)(=O)N1C[C@@H](C(=O)O)Oc2ccc(C(=O)Nc3ccccc3)cc21,pIC50,[1],7.40
same,pIC50,[2],7.84
same,pIC50,[3],< 4.00
same,pIC50,[4],< 4.00
same,pIC50,[5],4.77
COc1ccc(Cl)cc1S(=O)(=O)N(C)c1cc(C(=O)Nc2ccc(CC(=O)O)cc2)cc2c1OCO2,pIC50,[1],6.41
same,pIC50,[2],6.44
same,pIC50,[3],< 4.00
same,pIC50,[4],< 4.00
same,pIC50,[5],6.07
Cc1ccnc(N2CCN(C(=O)[C@H]3CCCCN3C(=O)COc3ccccc3)CC2)c1,pIC50,[1],6.91
same,pIC50,[2],6.71
same,pIC50,[3],6.23
same,pIC50,[4],5.90
same,pIC50,[5],4.50
O=C1Nc2ccc(-c3n[nH]c([C@H]4CCCCN4C(=O)COc4ccccc4)n3)cc2CO1,pIC50,[1],6.65
same,pIC50,[2],6.08
same,pIC50,[3],4.58
same,pIC50,[4],4.30
same,pIC50,[5],4.15
COc1ccc(Cl)cc1S(=O)(=O)c1c2cc(C(=O)Nc3ccccc3)ccc2nn1C,pIC50,[1],6.79
same,pIC50,[2],6.42
same,pIC50,[3],< 4.00
same,pIC50,[4],< 4.00
same,pIC50,[5],< 4.00
